# Data published in US20260070945A1, “MACROCYCLIC IMMUNOMODULATORS” (Bristol-Myers Squibb Company, priority 2022, published 2026).
# Where a SMILES comes first, the peptide text is derived from it. Bridges are numbered along the chain shown (N, C = ends). [ ]: non-standard residue; d: D form. The star is where a group is joined. ξ: configuration not given here. Phe(4-CONH2) = NC(=O)c1ccc(C[C@H](N)C(=O)O)cc1; Phe(4-COOH) = N[C@@H](Cc1ccc(C(=O)O)cc1)C(=O)O; Bip = N[C@@H](Cc1ccc(-c2ccccc2)cc1)C(=O)O; Phe(3-Me) = Cc1cccc(C[C@H](N)C(=O)O)c1; Val(3-OH) = CC(C)(O)[C@H](N)C(=O)O; hArg = N=C(N)NCCCC[C@H](N)C(=O)O; 4Pal = N[C@@H](Cc1ccncc1)C(=O)O; Cha = N[C@@H](CC1CCCCC1)C(=O)O; Cit = NC(=O)NCCC[C@H](N)C(=O)O; Thr(3ξ) = CC(O)[C@H](N)C(=O)O; hSer = N[C@@H](CCO)C(=O)O; Carboxymethyl = O=C(O)C*; NMeA = CN[C@@H](C)C(=O)O; Orn = NCCC[C@H](N)C(=O)O; Aun = NCCCCCCCCCCC(=O)O; Dab = NCC[C@H](N)C(=O)O; AEEA = NCCOCCOCC(=O)O; Sar = CNCC(=O)O
# Molecular target: T1, PD-1/PD-L1 interaction (PE-labeled human PD-L1-Ig binding to Jurkat cell line over-expressing human PD-1) (Homo sapiens, UniProt Q15116)
# T1 construct: expressed in transfected cells; host or cells: Jurkat
# T1 sequence (Q15116 25-288): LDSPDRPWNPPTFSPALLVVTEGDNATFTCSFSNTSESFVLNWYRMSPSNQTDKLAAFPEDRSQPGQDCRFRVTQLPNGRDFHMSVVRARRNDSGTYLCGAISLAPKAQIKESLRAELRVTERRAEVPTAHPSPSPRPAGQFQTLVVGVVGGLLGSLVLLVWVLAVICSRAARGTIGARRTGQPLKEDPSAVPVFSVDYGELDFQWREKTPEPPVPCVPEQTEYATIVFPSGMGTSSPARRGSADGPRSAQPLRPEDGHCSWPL
# Experiment: Jurkat-PD-1 Cell Binding High-Content Screening Assay (CBA)
# Conditions: Jurkat-hPD-1 cells, PE-labeled PD-L1-Ig 20 nM final; read-out: Jurkat HPD1 PDL1 IC50
# How it was run: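 In this imaging assay, cells in 10% FCS medium see compound for 2 h at 37 °C and then labeled ligand at 20 nM final for 1 h. Paraformaldehyde fixation, Hoechst 33342 staining and dPBS washes precede image capture.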
row,Compound,IC50 [nM]
1,CC(=O)NCCCC[C@@H]1NC(=O)[C@H](C(C)C)NC(=O)[C@H](CC2CCCCC2)NC(=O)[C@H](CCN)NC(=O)[C@@H](CC(C)C)NC(=O)[C@H](C)N(C)C(=O)[C@H](C(C)C)NC(=O)[C@H](Cc2ccc(-c3ccccc3)cc2)NC(=O)[C@H](C(C)C)NC(=O)[C@H](Cc2cccc(C)c2)NC(=O)[C@H](CC(=O)O)NC(=O)[C@H](Cc2ccc(OCC(=O)O)cc2)NC(=O)[C@H](C(C)O)NC(=O)CSC[C@@H](C(=O)N(C)CC(=O)NCCOCCOCC(=O)NCCCCCCCCCCC(=O)O)NC1=O (stereo partly drawn) [Example 2304] ({CH2CO}-[Thr(3ξ)]Y(Carboxymethyl)D[Phe(3-Me)]V[Bip]V[NMeA][dL][Dab][Cha]VK(Ac)C[Sar][AEEA][Aun]-OH; thioether N-14),31.3
2,CC(C)[C@@H]1NC(=O)[C@H](CC2CCCCC2)NC(=O)[C@H](CCN)NC(=O)CN(C)C(=O)[C@H](C)N(C)C(=O)[C@H](C(C)C)NC(=O)[C@H](Cc2ccc(-c3ccccc3)cc2)NC(=O)[C@H](C(C)C)NC(=O)[C@H](Cc2c[nH]c3ccccc23)NC(=O)[C@H](CC(=O)O)NC(=O)[C@H](Cc2ccncc2)NC(=O)[C@H](Cc2ccc(OCC(=O)O)cc2)NC(=O)CSC[C@@H](C(=O)N[C@@H](CCCCN)C(=O)NCCOCCOCC(=O)NCCCCCCCCCCC(=O)O)NC(=O)[C@H](CO)NC1=O [Example 2102] ({CH2CO}-Y(Carboxymethyl)[4Pal]DWV[Bip]V[NMeA][Sar][Dab][Cha]VSCK[AEEA][Aun]-OH; thioether N-14),337

# Next, values leading:
row,IC50 [nM],Compound
1,5.7,CC(=O)NCCCC[C@@H]1NC(=O)[C@H](Cc2ccc(-c3ccccc3)cc2)NC(=O)[C@H](C(C)C)NC(=O)[C@H](Cc2c[nH]c3ccccc23)NC(=O)[C@H](CC(=O)O)NC(=O)[C@H](Cc2ccc(OCC(=O)O)cc2)NC(=O)[C@H](Cc2ccc(OCC(=O)O)cc2)NC(=O)CSC[C@@H](C(=O)NCCOCCOCC(=O)NCCCCCCCCCCC(=O)O)NC(=O)[C@H](CCCCN)NC(=O)[C@H](C(C)C)NC(=O)[C@H](CC2CCCCC2)NC(=O)[C@H](CCN)NC(=O)[C@@H](CC(C)C)NC(=O)[C@H](C)N(C)C1=O [Example 2224] ({CH2CO}-Y(Carboxymethyl)Y(Carboxymethyl)DWV[Bip]K(Ac)[NMeA][dL][Dab][Cha]VKC[AEEA][Aun]-OH; thioether N-14)
2,16.3,CC(C)C[C@@H]1NC(=O)[C@H](Cc2c[nH]c3ccccc23)NC(=O)[C@H](CC(=O)O)NC(=O)[C@H](Cc2ccc(OCC(=O)O)cc2)NC(=O)[C@H](CCCCNC(=N)N)NC(=O)CSC[C@@H](C(=O)NCC(=O)NCCOCCOCC(=O)N[C@@H](CCCN)C(=O)NCCCCCCCCCCC(=O)O)NC(=O)[C@H](CCCNC(N)=O)NC(=O)[C@H](C(C)C)NC(=O)[C@H](CC2CCCCC2)NC(=O)[C@H](CCN)NC(=O)[C@@H](CC(C)C)NC(=O)[C@H](C)N(C)C(=O)[C@H](C(C)C)NC(=O)[C@H](Cc2ccc(-c3ccccc3)cc2)NC1=O [Example 2180] ({CH2CO}-[hArg]Y(Carboxymethyl)DWL[Bip]V[NMeA][dL][Dab][Cha]V[Cit]CG[AEEA][Orn][Aun]-OH; thioether N-14)
3,56.5,CC(C)C[C@H]1NC(=O)[C@H](C)N(C)C(=O)[C@H](Cc2ccc(OCC(=O)O)cc2)NC(=O)[C@H](Cc2ccc(-c3ccccc3)cc2)NC(=O)[C@H](Cc2ccc(OCC(=O)O)cc2)NC(=O)[C@H](Cc2c[nH]c3ccccc23)NC(=O)[C@H](CC(=O)O)NC(=O)[C@H](Cc2ccc(OCC(=O)O)cc2)NC(=O)[C@H]([C@@H](C)O)NC(=O)CSC[C@@H](C(=O)N[C@@H](CCCN)C(=O)NCCOCCOCC(=O)NCCCCCCCCCCC(=O)O)NC(=O)[C@H](CO)NC(=O)[C@H](C(C)C)NC(=O)[C@H](CC2CCCCC2)NC(=O)[C@H](CCN)NC1=O [Example 1395] ({CH2CO}-TY(Carboxymethyl)DWY(Carboxymethyl)[Bip]Y(Carboxymethyl)[NMeA][dL][Dab][Cha]VSC[Orn][AEEA][Aun]-OH; thioether N-14)
4,11.6,CC(=O)NCCCC[C@@H]1NC(=O)[C@H](C(C)C)NC(=O)[C@H](CC2CCCCC2)NC(=O)[C@H](CCN)NC(=O)[C@@H](CC(C)C)NC(=O)[C@H](C)N(C)C(=O)[C@H](CCO)NC(=O)[C@H](Cc2ccc(-c3ccccc3)cc2)NC(=O)[C@H](C(C)C)NC(=O)[C@H](Cc2cccc(C)c2)NC(=O)[C@H](CC(=O)O)NC(=O)[C@H](Cc2ccc(OCC(=O)O)cc2)NC(=O)[C@H](Cc2ccc(OCC(=O)O)cc2)NC(=O)CSC[C@@H](C(=O)N[C@@H](CCN)C(=O)NCCCCCCCCCCC(=O)O)NC1=O [Example 2221] ({CH2CO}-Y(Carboxymethyl)Y(Carboxymethyl)D[Phe(3-Me)]V[Bip][hSer][NMeA][dL][Dab][Cha]VK(Ac)C[Dab][Aun]-OH; thioether N-14)
5,43.4,CC[C@H](C)[C@@H]1NC(=O)[C@H](Cc2ccc(-c3ccccc3)cc2)NC(=O)[C@H](CC(C)C)NC(=O)[C@H](Cc2c[nH]c3ccccc23)NC(=O)[C@H](CC(=O)O)NC(=O)[C@H](Cc2ccc(C(=O)O)cc2)NC(=O)[C@H](Cc2ccc(OCC(=O)O)cc2)NC(=O)CSC[C@@H](C(=O)N[C@@H](CCCNC(=N)N)C(=O)NCCCCCCCCCCC(=O)O)NC(=O)[C@H](CO)NC(=O)[C@H](C(C)C)NC(=O)[C@H](CC2CCCCC2)NC(=O)[C@H](CCN)NC(=O)[C@@H](CC(C)C)NC(=O)[C@H](C)N(C)C1=O [Example 1074] ({CH2CO}-Y(Carboxymethyl)[Phe(4-COOH)]DWL[Bip]I[NMeA][dL][Dab][Cha]VSCR[Aun]-OH; thioether N-14)

# Same assay, conditions: PE-labeled PD-L1-Ig 20 nM final, Jurkat-hPD-1 cells; read-out: Jurkat HPD1 PDL1 IC50
row,IC50 [nM],Compound
1,16.1,Cc1cccc(C[C@@H]2NC(=O)[C@H](CC(=O)O)NC(=O)[C@H](Cc3ccc(OCC(=O)O)cc3)NC(=O)[C@H](C(C)C)NC(=O)CSC[C@@H](C(=O)N[C@@H](CCN)C(=O)NCCOCCOCC(=O)NCCCCCCCCCCC(=O)O)NC(=O)[C@H](CCC(=O)O)NC(=O)[C@H](C(C)(C)O)NC(=O)[C@H](CC3CCCCC3)NC(=O)[C@H](CCN)NC(=O)[C@@H](CC(C)C)NC(=O)[C@H](C)N(C)C(=O)[C@H](Cc3ccc(C(=O)O)cc3)NC(=O)[C@H](Cc3ccc(-c4ccccc4)cc3)NC(=O)[C@H](Cc3ccc(C(=O)O)cc3)NC2=O)c1 [Example 2511] ({CH2CO}-VY(Carboxymethyl)D[Phe(3-Me)][Phe(4-COOH)][Bip][Phe(4-COOH)][NMeA][dL][Dab][Cha][Val(3-OH)]EC[Dab][AEEA][Aun]-OH; thioether N-14)
2,435,Cc1cccc(C[C@@H]2NC(=O)[C@H](CC(=O)O)NC(=O)[C@H](Cc3ccc(C(=O)O)cc3)NC(=O)[C@H](Cc3ccncc3)NC(=O)CSC[C@@H](C(=O)N[C@@H](CCN)C(=O)NCCOCCOCC(=O)NCCOCCOCC(=O)NCCCCCCCCCCC(=O)O)NC(=O)[C@H](CCC(=O)O)NC(=O)[C@H](C(C)C)NC(=O)[C@H](CC3CCCCC3)NC(=O)[C@H](CCN)NC(=O)[C@@H](CC(C)C)NC(=O)[C@H](C)N(C)C(=O)[C@H](CCC(=O)O)NC(=O)[C@H](Cc3ccc(-c4ccccc4)cc3)NC(=O)[C@H](Cc3ccc(C(N)=O)cc3)NC2=O)c1 [Example 2536] ({CH2CO}-[4Pal][Phe(4-COOH)]D[Phe(3-Me)][Phe(4-CONH2)][Bip]E[NMeA][dL][Dab][Cha]VEC[Dab][AEEA][AEEA][Aun]-OH; thioether N-14)
